Reference: US11530221B2, “Pyrimido[4,5-d]pyrimidin-2-one derivatives as protein kinase inhibitors” (KOREA INSTITUTE OF SCIENCE AND TECHNOLOGY, priority 2019, dated 2022)
Like-named read-outs stand apart in the source and are kept apart here. Square brackets hold non-standard residues; d marks the D form. Peptide text beside a SMILES is read from it. * marks the point of attachment. X1 = Cc1ccc(Nc2ncc3c(n2)N(C)C(=O)N(c2cc(C(=O)*)ccc2C)C3)cn1; Chg = N[C@H](C(=O)O)C1CCCCC1; Aze = O=C(O)[C@@H]1CCN1; Nva = CCC[C@H](N)C(=O)O; Aib = CC(C)(N)C(=O)O

Key:
Assay type in all cases: biochemical
ABL1 = ABL1 (Homo sapiens, UniProt P00519); experiment: IC50 inhibitory activity against ABL1 kinase
Experimental: (§1) IC50 values were calculated by measuring the inhibitory activity against LCK, c-Src, p38a/MAPK14, ABL1, DDR1 and FGR kinases of the compounds of the present invention.

p38a/MAPK14 = p38a/MAPK14 (Homo sapiens, UniProt Q16539); experiment: IC50 inhibitory activity against p38a/MAPK14 kinase; conditions: read-out: p38a/MAPK14 IC50
Experimental: as §1

c-Src = c-Src (Homo sapiens, UniProt P12931); experiment: IC50 inhibitory activity against c-Src kinase
Experimental: as §1

LCK = LCK (Homo sapiens, UniProt P06239); experiment: IC50 inhibitory activity against LCK kinase
Experimental: as §1

Sequence of c-Src (P12931 whole entry): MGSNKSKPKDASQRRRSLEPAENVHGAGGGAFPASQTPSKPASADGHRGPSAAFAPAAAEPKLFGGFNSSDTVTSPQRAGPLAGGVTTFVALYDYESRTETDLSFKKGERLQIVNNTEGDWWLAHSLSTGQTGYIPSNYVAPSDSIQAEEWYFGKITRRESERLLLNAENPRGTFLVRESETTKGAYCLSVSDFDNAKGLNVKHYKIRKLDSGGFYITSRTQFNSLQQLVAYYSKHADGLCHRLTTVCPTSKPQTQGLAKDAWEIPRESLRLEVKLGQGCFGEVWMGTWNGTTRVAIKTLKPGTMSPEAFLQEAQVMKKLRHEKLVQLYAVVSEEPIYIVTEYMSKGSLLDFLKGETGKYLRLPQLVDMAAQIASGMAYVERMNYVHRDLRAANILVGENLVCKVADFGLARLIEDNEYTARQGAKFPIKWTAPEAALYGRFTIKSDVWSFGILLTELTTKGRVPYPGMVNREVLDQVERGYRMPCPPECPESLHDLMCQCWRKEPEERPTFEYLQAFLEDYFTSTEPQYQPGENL
Sequence of ABL1 (P00519 whole entry): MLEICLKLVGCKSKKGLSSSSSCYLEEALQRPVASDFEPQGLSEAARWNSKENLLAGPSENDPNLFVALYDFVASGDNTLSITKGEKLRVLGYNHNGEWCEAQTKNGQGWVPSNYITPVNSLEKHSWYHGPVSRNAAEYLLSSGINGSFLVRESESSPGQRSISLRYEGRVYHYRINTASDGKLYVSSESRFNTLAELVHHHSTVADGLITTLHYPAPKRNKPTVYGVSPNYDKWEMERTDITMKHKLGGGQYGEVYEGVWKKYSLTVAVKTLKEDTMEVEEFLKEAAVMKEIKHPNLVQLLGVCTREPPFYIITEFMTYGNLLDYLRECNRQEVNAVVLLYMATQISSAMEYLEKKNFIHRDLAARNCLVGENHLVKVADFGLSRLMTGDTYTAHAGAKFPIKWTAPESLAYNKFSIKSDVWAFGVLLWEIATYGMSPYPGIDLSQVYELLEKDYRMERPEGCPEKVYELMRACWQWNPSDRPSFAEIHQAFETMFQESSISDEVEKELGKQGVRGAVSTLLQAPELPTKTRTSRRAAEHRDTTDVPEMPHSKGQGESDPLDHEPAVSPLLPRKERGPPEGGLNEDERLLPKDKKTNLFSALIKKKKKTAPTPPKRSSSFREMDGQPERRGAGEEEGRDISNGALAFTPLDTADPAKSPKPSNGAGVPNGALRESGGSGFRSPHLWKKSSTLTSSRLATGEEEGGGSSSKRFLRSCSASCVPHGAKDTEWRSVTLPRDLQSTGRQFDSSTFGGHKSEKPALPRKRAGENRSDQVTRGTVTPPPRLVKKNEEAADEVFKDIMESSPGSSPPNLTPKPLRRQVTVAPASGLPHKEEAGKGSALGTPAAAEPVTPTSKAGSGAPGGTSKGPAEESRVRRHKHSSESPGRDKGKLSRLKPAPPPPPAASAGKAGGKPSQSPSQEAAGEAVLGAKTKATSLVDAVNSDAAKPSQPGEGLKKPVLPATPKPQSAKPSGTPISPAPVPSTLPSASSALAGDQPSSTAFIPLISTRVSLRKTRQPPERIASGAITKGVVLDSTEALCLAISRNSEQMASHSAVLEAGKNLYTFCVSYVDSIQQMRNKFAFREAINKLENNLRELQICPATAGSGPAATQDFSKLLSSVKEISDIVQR
Sequence of p38a/MAPK14 (Q16539 whole entry): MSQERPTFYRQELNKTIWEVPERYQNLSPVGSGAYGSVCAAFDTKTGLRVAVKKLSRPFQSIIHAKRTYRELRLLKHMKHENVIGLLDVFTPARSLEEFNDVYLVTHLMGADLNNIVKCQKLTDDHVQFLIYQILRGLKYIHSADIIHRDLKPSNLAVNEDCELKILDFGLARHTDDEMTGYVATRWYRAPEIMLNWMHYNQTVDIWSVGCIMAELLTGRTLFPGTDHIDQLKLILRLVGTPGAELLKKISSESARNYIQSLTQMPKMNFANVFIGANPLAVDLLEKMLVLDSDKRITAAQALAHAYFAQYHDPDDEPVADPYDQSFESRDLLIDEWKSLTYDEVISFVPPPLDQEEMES
Sequence of LCK (P06239 whole entry): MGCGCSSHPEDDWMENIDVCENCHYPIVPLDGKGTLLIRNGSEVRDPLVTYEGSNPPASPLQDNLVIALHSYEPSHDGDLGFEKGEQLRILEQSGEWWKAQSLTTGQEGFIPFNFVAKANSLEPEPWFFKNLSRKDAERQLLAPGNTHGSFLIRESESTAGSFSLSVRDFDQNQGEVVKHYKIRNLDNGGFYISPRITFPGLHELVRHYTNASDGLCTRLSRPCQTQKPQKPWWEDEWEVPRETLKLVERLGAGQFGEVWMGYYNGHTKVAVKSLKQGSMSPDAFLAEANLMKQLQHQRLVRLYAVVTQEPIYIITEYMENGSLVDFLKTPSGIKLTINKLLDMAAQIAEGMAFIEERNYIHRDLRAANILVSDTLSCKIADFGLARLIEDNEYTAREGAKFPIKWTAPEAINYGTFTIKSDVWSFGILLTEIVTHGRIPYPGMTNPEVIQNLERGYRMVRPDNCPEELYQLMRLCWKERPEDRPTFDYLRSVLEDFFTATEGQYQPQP

| IC50 (ABL1; read-out: ABL1 IC50) [µM] | IC50 (p38a/MAPK14) [µM] | IC50 (c-Src; read-out: c-Src IC50) [µM] | IC50 (LCK; read-out: LCK IC50) [µM] | SMILES | IC50 (c-Src) [µM] | IC50 (ABL1) [µM] | IC50 (LCK) [µM] |
| --- | --- | --- | --- | --- | --- | --- | --- |
| > 0.6 |  |  |  | Cc1ccc(Nc2ncc3c(n2)N(C)C(=O)N(c2cc(NC(=O)[C@H](Cc4c[nH]c5ccccc45)NC(=O)c4ccc([N+](=O)[O-])c(OCC(C)C)c4)ccc2C)C3)cn1 [Example 55] |  |  |  |
| 0.001 to 0.2 | 0.001 to 0.2 | 0.001 to 0.2 | 0.001 to 0.2 | Cc1ccc(Nc2ncc3c(n2)N(C)C(=O)N(c2cc(NC(=O)[C@@H]4CN(C(=O)OCC(Cl)(Cl)Cl)C[C@H]4C(=O)NCc4ccc(Cl)cc4)ccc2C)C3)cn1 [Example 57, 2,2,2-trichloroethyl (3S,4S)-3-((4-chlorobenzyl)carbamoyl)-4-((4-methyl-3-(1-methyl-7-((6-methylpyridin-3-yl)amino)-2-oxo-1,4-dihydropyrimido[4,5-d]pyrimidin-3(2H)-yl)phenyl)carbamoyl)pyrrolidine-1-carboxylate] |  |  |  |
| 0.001 to 0.2 | > 0.6 |  |  | COc1ccc(CCOc2cc(C(=O)N[C@@H](C)C(=O)Nc3ccc(C)c(N4Cc5cnc(Nc6ccc(C)nc6)nc5N(C)C4=O)c3)ccc2[N+](=O)[O-])cc1 [Example 56] |  |  |  |
|  |  |  |  | Cc1ccc(Nc2ncc3c(n2)N(C)C(=O)N(c2cc(C(=O)N[C@H](C(=O)N4CC[C@H]4C(=O)NC(C)(C)C(=O)N[C@@H](CC(C)C)C(=O)N(C)C)C(C)C)ccc2C)C3)cn1 [Example 15, (S)—N-(1-(((S)-1-(dimethylamino)-4-methyl-1-oxopentan-2-yl)amino)-2-methyl-1-oxopropan-2-yl)-1-((4-methyl-3-(1-methyl-7-((6-methylpyridin-3-yl)amino)-2-oxo-1,4-dihydropyrimido[4,5-d]pyrimidin-3(2H)-yl)benzoyl)-L-valyl)azetidine-2-carboxamide] (X1-V[Aze][Aib]L-NMe2) | > 0.6 | 0.001 to 0.2 | 0.2 to 0.4 |
| 0.001 to 0.2 |  | 0.2 to 0.4 | 0.001 to 0.2 | CC[C@H](C)[C@H](NC(=O)c1ccc(C)c(N2Cc3cnc(Nc4ccc(C)nc4)nc3N(C)C2=O)c1)C(=O)N1CCC[C@H]1C(=O)NC(C)(C)C(=O)N[C@@H](CC(C)C)C(=O)N(C)C [Example 16, (S)—N-(1-(((S)-1-(dimethylamino)-4-methyl-1-oxopentan-2-yl)amino)-2-methyl-1-oxopropan-2-yl)-1-((4-methyl-3-(1-methyl-7-((6-methylpyridin-3-yl)amino)-2-oxo-1,4-dihydropyrimido[4,5-d]pyrimidin-3(2H)-yl)benzoyl)-L-isoleucyl)pyrrolidine-2-carboxamide] (X1-IP[Aib]L-NMe2) |  |  |  |
|  |  |  |  | Cc1ccc(Nc2ncc3c(n2)N(C)C(=O)N(c2cc(C(=O)NCC(=O)N4CCC[C@H]4C(=O)NC(C)(C)C(=O)N[C@@H](CC(C)C)C(=O)N(C)C)ccc2C)C3)cn1 [Example 18, (S)—N-(1-(((S)-1-(dimethylamino)-4-methyl-1-oxopentan-2-yl)amino)-2-methyl-1-oxopropan-2-yl)-1-((4-methyl-3-(1-methyl-7-((6-methylpyridin-3-yl)amino)-2-oxo-1,4-dihydropyrimido[4,5-d]pyrimidin-3(2H)-yl)benzoyl)glycyl)pyrrolidine-2-carboxamide] (X1-GP[Aib]L-NMe2) | 0.4 to 0.6 | 0.001 to 0.2 | 0.2 to 0.4 |
| 0.001 to 0.2 | 0.001 to 0.2 |  | 0.001 to 0.2 | COc1ccc(CCOc2cc(C(=O)Nc3ccc(C)c(N4Cc5cnc(Nc6ccc(C)nc6)nc5N(C)C4=O)c3)ccc2[N+](=O)[O-])cc1 [Example 51, 3-(4-methoxyphenethoxy)-N-(4-methyl-3-(1-methyl-7-((6-methylpyridin-3-yl)amino)-2-oxo-1,4-dihydropyrimido[4,5-d]pyrimidin-3(2H)-yl)phenyl)-4-nitrobenzamide] |  |  |  |
|  |  |  |  | Cc1ccc(Nc2ncc3c(n2)N(C)C(=O)N(c2cc(C(=O)N[C@@H](CC(C)C)C(=O)N4CCC[C@H]4C(=O)NC(C)(C)C(=O)N[C@@H](CC(C)C)C(=O)N(C)C)ccc2C)C3)cn1 [Example 20, (S)—N-(1-(((S)-1-(dimethylamino)-4-methyl-1-oxopentan-2-yl)amino)-2-methyl-1-oxopropan-2-yl)-1-((4-methyl-3-(1-methyl-7-((6-methylpyridin-3-yl)amino)-2-oxo-1,4-dihydropyrimido[4,5-d]pyrimidin-3(2H)-yl)benzoyl)-L-lucyl)pyrrolidine-2-carboxamide] (X1-LP[Aib]L-NMe2) | 0.001 to 0.2 | 0.001 to 0.2 | 0.001 to 0.2 |
| 0.001 to 0.2 | 0.2 to 0.4 |  |  | Cc1ccc(Nc2ncc3c(n2)N(C)C(=O)N(c2cc(NC(=O)c4ccc([N+](=O)[O-])c(OCCc5c[nH]c6ccccc56)c4)ccc2C)C3)cn1 [Example 50, 3-(2-(1H-indol-3-yl)ethoxy)-N-(4-methyl-3-(1-methyl-7-((6-methylpyridin-3-yl)amino)-2-oxo-1,4-dihydropyrimido[4,5-d]pyrimidin-3(2H)-yl)phenyl)-4-nitrobenzamide] |  |  |  |
| 0.001 to 0.2 |  | 0.2 to 0.4 | 0.001 to 0.2 | Cc1ccc(Nc2ncc3c(n2)N(C)C(=O)N(c2cc(C(=O)N[C@@H](C)C(=O)N4CCC[C@H]4C(=O)NC(C)(C)C(=O)N[C@@H](CC(C)C)C(=O)N(C)C)ccc2C)C3)cn1 [Example 17, (S)—N-(1-(((S)-1-(dimethylamino)-4-methyl-1-oxopentan-2-yl)amino)-2-methyl-1-oxopropan-2-yl)-1-((4-methyl-3-(1-methyl-7-((6-methylpyridin-3-yl)amino)-2-oxo-1,4-dihydropyrimido[4,5-d]pyrimidin-3(2H)-yl)benzoyl)-L-alanyl)pyrrolidine-2-carboxamide] (X1-AP[Aib]L-NMe2) |  |  |  |
|  |  |  |  | CCC[C@H](NC(=O)c1ccc(C)c(N2Cc3cnc(Nc4ccc(C)nc4)nc3N(C)C2=O)c1)C(=O)N1CCC[C@H]1C(=O)NC(C)(C)C(=O)N[C@@H](CC(C)C)C(=O)N(C)C [Example 21, (S)—N-(1-(((S)-1-(dimethylamino)-4-methyl-1-oxopentan-2-yl)amino)-2-methyl-1-oxopropan-2-yl)-1-((S)-2-(4-methyl-3-(1-methyl-7-((6-methylpyridin-3-yl)amino)-2-oxo-1,4-dihydropyrimido[4,5-d]pyrimidin-3(2H)-yl)benzamido)pentanoyl)pyrrolidine-2-carboxamide] (X1-[Nva]P[Aib]L-NMe2) | 0.4 to 0.6 | 0.001 to 0.2 | 0.001 to 0.2 |
|  |  | 0.001 to 0.2 | 0.001 to 0.2 | C=CCCC1=N[C@@H](CC(=O)Nc2ccc(C)c(N3Cc4cnc(Nc5ccc(C)nc5)nc4N(C)C3=O)c2)C(=O)N(C)c2ccccc21 [Example 45, (S)-2-(5-(but-3-en-1-yl)-1-methyl-2-oxo-2,3-dihydro-1H-benzo[e][1,4]diazepin-3-yl)-N-(4-methyl-3-(1-methyl-7-((6-methylpyridin-3-yl)amino)-2-oxo-1,4-dihydropyrimido[4,5-d]pyrimidin-3(2H)-yl)phenyl)acetamide] |  |  |  |
|  |  | 0.001 to 0.2 | 0.001 to 0.2 | CC1=N[C@@H](CC(C)C)C(=O)N(Cc2ccccc2)c2cc(C(=O)Nc3ccc(C)c(N4Cc5cnc(Nc6ccc(C)nc6)nc5N(C)C4=O)c3)ccc21 [Example 41, (S)-1-benzyl-3-isobutyl-5-methyl-N-(4-methyl-3-(1-methyl-7-((6-methylpyridin-3-yl)amino)-2-oxo-1,4-dihydropyrimido[4,5-d]pyrimidin-3(2H)-yl)phenyl)-2-oxo-2,3-dihydro-1H-benzo[e][1,4]diazepine-8-carboxamide] |  |  |  |
|  |  | 0.001 to 0.2 | 0.001 to 0.2 | Cc1ccc(Nc2ncc3c(n2)N(C)C(=O)N(c2cc(NC(=O)c4ccc5c(c4)NC(=O)[C@@H](Cc4ccccc4)N=C5c4ccccc4)ccc2C)C3)cn1 [Example 36, (R)-3-benzyl-N-(4-methyl-3-(1-methyl-7-((6-methylpyridin-3-yl)amino)-2-oxo-1,4-dihydropyrimido[4,5-d]pyrimidin-3(2H)-yl)phenyl)-2-oxo-5-phenyl-2,3-dihydro-1H-benzo[e][1,4]diazepine-8-carboxamide] |  |  |  |
|  |  | > 0.6 | 0.001 to 0.2 | Cc1ccc(Nc2ncc3c(n2)N(C)C(=O)N(c2cc(C(=O)N[C@H](C(=O)N4CCC[C@H]4C(=O)N[C@H](C(=O)N[C@H](C)c4ccccc4)C(C)C)C(C)C)ccc2C)C3)cn1 [Example 9, (S)—N—((S)-3-methyl-1-oxo-1-(((R)-1-phenylethyl)amino)butan-2-yl)-1-((4-methyl-3-(1-methyl-7-((6-methylpyridin-3-yl)amino)-2-oxo-1,4-dihydropyrimido[4,5-d]pyrimidin-3(2H)-yl)benzoyl)-L-valyl)pyrrolidine-2-carboxamide] |  |  |  |
|  |  |  |  | Cc1ccc(Nc2ncc3c(n2)N(C)C(=O)N(c2cc(C(=O)N[C@H](C(=O)N4CCC[C@H]4C(=O)NC(C)(C)C(=O)N[C@@H](CC(C)C)C(=O)N(C)C)C4CCCCC4)ccc2C)C3)cn1 [Example 19, (S)-1-((S)-2-cyclohexyl-2-((4-methyl-3-(1-methyl-7-((6-methylpyridin-3-yl)amino)-2-oxo-1,4-dihydropyrimido[4,5-d]pyrimidin-3(2H)-yl)benzamido)acetyl)-N-(1-(((S)-1-dimethylamino)-4-methyl-1-oxopentan-2-yl)amino)-2-methyl-1-oxopropan-2-yl]pyrrolidine-2-carboxamide] (X1-[Chg]P[Aib]L-NMe2) | 0.4 to 0.6 | 0.2 to 0.4 | 0.001 to 0.2 |

| SMILES | IC50 (ABL1; read-out: ABL1 IC50) [µM] | IC50 (p38a/MAPK14) [µM] | IC50 (c-Src; read-out: c-Src IC50) [µM] | IC50 (LCK; read-out: LCK IC50) [µM] | IC50 (c-Src) [µM] | IC50 (ABL1) [µM] | IC50 (LCK) [µM] |
| --- | --- | --- | --- | --- | --- | --- | --- |
| Cc1ccc(Nc2ncc3c(n2)N(C)C(=O)N(c2cc(NC(=O)[C@H](C)NC(=O)c4ccc([N+](=O)[O-])c(OCC(C)C)c4)ccc2C)C3)cn1 [Example 53, (S)-3-isobutoxy-N-(1-((4-methyl-3-(1-methyl-7-((6-methylpyridin-3-yl)amino)-2-oxo-1,4-dihydropyrimido[4,5-d]pyrimidin-3(2H)-yl)phenyl)amino)-2-oxopropan-2-yl)-4-nitrobenzamide] | > 0.6 | > 0.6 |  |  |  |  |  |
